{"source": "patent US10011570B2", "about": "“Nucleic acid binding dyes with improved safety” (Biotium, Inc., priority 2013, dated 2018)", "origin": "cited, not measured here", "tested_on": "cellular mutation caused by UV light or other known mutagens", "conditions": "cited from earlier work"}
{"smiles": "CCCN(CCCN(C)C)c1cc(/C=C2/Sc3ccccc3N2C)c2ccccc2[n+]1-c1ccccc1", "note": "[SYBR Green]", "values": [{"measurement": "effect on cellular mutation caused by UV light or other known mutagens", "result": "can worsen cellular mutation"}, {"measurement": "power in worsening mutation relative to ethidium bromide", "result": "~100", "unit": "times"}]}
